Source: ChEMBL document CHEMBL5291721, “A preclinical secondary pharmacology resource illuminates target-adverse drug reaction associations of marketed drugs” (Nat Commun, 2023)

Legend:
[1] = target: T1, B2 bradykinin receptor (Homo sapiens, UniProt P30411)
T1 sequence (P30411 whole entry): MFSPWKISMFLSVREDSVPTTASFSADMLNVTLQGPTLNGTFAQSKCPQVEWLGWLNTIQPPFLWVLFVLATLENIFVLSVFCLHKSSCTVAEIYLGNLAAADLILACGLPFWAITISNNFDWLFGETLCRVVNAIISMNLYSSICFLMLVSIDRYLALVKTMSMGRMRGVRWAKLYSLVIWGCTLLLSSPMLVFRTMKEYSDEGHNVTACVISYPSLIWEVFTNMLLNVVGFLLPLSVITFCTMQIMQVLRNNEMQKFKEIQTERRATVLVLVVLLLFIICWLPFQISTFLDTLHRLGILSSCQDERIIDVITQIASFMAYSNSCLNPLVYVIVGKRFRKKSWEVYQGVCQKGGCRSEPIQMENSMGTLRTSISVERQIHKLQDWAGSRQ

[2] = target: T2, Progesterone receptor (Homo sapiens, UniProt P06401); format: functional
T2 sequence (P06401 whole entry): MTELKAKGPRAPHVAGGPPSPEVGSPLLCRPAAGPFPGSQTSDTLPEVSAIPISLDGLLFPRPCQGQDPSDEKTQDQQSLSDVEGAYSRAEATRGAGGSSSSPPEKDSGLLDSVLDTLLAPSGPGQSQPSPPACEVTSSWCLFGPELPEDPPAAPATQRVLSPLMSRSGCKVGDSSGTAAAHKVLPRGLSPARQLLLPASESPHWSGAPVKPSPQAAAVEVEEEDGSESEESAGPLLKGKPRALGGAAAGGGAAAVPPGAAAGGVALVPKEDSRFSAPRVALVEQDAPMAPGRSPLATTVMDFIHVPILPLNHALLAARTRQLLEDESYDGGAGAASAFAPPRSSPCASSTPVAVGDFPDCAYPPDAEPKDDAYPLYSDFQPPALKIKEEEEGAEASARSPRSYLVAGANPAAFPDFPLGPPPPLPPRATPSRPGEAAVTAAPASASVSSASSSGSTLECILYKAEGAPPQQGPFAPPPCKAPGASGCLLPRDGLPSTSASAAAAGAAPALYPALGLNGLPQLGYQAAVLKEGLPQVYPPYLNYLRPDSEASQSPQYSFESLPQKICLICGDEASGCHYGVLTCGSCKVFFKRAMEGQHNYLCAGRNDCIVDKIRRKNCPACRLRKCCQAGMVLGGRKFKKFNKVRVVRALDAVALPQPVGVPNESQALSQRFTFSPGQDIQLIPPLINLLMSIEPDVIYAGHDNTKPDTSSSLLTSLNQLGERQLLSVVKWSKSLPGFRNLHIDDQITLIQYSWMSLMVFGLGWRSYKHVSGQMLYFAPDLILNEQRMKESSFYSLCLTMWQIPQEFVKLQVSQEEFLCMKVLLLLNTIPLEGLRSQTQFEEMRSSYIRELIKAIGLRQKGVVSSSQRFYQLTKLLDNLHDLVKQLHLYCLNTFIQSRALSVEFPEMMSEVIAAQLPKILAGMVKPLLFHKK

[3] = target: T2, Progesterone receptor
[4] = target: T3, Thromboxane A2 receptor (Homo sapiens, UniProt P21731); format: functional, cell-based
T3 sequence (P21731 whole entry): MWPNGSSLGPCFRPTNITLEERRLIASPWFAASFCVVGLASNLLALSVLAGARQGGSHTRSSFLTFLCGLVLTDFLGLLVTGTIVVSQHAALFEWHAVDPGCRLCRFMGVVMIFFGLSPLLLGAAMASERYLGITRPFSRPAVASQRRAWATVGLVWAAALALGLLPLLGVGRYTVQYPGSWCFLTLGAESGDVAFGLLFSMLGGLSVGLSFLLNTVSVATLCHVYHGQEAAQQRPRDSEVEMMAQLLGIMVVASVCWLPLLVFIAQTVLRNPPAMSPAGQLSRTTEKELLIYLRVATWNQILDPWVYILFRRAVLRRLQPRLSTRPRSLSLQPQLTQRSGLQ

[5] = target: T4, Alpha-1A adrenergic receptor (Homo sapiens, UniProt P35348); format: functional, cell-based
T4 sequence (P35348 whole entry): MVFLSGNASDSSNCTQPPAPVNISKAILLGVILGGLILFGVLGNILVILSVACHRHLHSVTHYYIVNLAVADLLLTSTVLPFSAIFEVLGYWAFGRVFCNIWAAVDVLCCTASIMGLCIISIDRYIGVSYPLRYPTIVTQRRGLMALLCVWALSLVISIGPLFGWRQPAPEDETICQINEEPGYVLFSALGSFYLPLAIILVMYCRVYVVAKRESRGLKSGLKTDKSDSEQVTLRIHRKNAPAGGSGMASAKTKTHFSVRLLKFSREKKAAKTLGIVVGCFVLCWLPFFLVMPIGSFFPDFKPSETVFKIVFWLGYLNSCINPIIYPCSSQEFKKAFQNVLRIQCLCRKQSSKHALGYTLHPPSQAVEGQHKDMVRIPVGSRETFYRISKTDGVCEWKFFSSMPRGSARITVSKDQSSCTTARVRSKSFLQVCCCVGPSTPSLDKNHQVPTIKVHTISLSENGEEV

[6] = target: Beta-1 adrenergic receptor (Homo sapiens, UniProt P08588); format: functional
[7] = target: Histamine H3 receptor (Homo sapiens, UniProt Q9Y5N1)
[8] = target: T5, Endothelin-1 receptor (Homo sapiens, UniProt P25101)
T5 sequence (P25101 whole entry): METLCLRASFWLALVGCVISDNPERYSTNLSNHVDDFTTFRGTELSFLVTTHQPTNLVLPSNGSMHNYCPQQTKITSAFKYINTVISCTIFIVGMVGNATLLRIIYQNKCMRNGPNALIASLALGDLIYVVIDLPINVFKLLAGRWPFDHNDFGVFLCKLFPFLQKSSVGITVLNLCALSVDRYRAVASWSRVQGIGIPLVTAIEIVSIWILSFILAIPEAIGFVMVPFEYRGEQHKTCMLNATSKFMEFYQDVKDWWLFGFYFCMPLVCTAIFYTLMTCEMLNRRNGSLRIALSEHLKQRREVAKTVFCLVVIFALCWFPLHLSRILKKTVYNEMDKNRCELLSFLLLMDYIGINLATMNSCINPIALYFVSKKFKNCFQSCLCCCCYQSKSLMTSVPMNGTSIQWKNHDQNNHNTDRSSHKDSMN

[9] = target: 5-hydroxytryptamine receptor 2B (Homo sapiens, UniProt P41595); format: functional, cell-based
[10] = target: 5-hydroxytryptamine receptor 2A (Homo sapiens, UniProt P28223); format: functional, cell-based
Also: assay procedure not described here.

Chain of Histamine H3 receptor (Q9Y5N1 whole entry): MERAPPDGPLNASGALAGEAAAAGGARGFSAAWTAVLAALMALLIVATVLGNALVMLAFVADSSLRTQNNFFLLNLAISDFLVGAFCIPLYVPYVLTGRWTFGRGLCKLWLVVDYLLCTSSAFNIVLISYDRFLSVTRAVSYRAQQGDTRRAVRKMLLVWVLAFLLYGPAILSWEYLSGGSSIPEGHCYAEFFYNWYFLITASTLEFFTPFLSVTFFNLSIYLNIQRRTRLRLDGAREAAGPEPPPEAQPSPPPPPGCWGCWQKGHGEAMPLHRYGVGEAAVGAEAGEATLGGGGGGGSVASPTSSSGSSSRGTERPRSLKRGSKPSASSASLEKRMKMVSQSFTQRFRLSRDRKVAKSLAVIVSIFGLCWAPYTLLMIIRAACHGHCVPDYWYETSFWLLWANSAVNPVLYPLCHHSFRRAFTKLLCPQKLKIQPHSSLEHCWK
Chain of 5-hydroxytryptamine receptor 2B (P41595 whole entry): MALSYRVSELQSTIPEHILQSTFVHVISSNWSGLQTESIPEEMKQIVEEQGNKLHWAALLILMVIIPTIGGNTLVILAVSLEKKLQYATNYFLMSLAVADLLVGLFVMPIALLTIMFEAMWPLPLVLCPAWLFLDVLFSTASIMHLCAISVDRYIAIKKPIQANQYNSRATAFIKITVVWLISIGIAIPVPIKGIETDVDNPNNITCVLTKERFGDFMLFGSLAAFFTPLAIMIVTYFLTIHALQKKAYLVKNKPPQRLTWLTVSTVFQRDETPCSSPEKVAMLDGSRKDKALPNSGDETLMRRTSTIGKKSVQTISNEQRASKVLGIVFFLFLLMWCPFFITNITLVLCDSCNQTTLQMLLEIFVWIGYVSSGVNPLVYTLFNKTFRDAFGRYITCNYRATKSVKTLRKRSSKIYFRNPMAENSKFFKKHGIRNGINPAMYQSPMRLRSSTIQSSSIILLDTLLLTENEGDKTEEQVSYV
Chain of Beta-1 adrenergic receptor (P08588 whole entry): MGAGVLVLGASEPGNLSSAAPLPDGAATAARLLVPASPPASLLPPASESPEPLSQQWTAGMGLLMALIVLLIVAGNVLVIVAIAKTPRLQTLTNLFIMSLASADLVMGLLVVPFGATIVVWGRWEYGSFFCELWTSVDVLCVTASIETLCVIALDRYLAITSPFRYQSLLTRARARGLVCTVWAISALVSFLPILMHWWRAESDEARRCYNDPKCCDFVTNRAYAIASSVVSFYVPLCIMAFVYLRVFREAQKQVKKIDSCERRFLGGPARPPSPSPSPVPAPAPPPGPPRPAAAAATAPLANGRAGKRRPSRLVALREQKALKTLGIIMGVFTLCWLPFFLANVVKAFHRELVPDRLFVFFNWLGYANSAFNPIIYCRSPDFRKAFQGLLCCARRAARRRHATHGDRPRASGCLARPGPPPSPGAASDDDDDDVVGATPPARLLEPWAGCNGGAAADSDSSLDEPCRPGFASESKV
Chain of 5-hydroxytryptamine receptor 2A (P28223 whole entry): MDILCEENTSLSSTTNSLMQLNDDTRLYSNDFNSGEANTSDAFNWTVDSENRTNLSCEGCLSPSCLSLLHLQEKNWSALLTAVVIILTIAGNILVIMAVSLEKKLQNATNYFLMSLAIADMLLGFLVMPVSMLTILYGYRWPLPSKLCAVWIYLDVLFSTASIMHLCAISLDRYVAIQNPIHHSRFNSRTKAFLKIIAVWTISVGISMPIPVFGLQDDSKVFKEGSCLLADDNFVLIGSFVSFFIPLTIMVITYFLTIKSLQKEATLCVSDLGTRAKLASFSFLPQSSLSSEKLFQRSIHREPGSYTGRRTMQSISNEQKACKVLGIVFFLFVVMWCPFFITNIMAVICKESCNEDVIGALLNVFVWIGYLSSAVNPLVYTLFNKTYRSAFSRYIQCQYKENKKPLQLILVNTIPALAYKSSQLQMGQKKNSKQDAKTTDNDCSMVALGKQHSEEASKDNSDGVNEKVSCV

| Compound | AC50 [1] | AC50 [2] | AC50 [3] | AC50 [4] | AC50 [5] | AC50 [6] | AC50 [7] | AC50 [8] | AC50 [9] | AC50 [10] |
| --- | --- | --- | --- | --- | --- | --- | --- | --- | --- | --- |
| O=c1[nH]cc(F)c(=O)[nH]1 [FLUOROURACIL] | > 30 µM | > 30 µM | > 30 µM | > 30 µM | > 30 µM | > 30 µM | > 30 µM | > 30 µM | > 30 µM |  |
| CNC1(c2ccccc2Cl)CCCCC1=O (stereo not drawn) [KETAMINE] |  |  | > 30 µM | > 30 µM | > 30 µM |  | > 30 µM |  | > 30 µM |  |
| CS(=O)(=O)Nc1ccc([N+](=O)[O-])cc1Oc1ccccc1 [NIMESULIDE] | 20 µM | > 30 µM | > 30 µM | > 30 µM | > 30 µM | > 30 µM | > 30 µM | > 30 µM | > 30 µM |  |
| C[C@@H](O)[C@H]1C(=O)N2C(C(=O)O)=C(SCCN=CN)C[C@H]12 [IMIPENEM ANHYDROUS] |  | > 300 µM |  |  |  | > 300 µM |  | > 300 µM |  | > 300 µM |
| c1cnc2cc3c(cc2n1)[C@@H]1CNC[C@H]3C1 [VARENICLINE] |  | > 30 µM |  |  |  | > 30 µM |  | > 30 µM |  | > 30 µM |
| O=C(O)COC(=O)Cc1ccccc1Nc1c(Cl)cccc1Cl [ACECLOFENAC] | > 30 µM |  |  |  |  | > 10 µM |  |  |  |  |
| CO[C@@H]1[C@@H](OC(N)=O)[C@@H](O)[C@H](Oc2ccc3c(O)c(NC(=O)c4ccc(O)c(CC=C(C)C)c4)c(=O)oc3c2C)OC1(C)C [NOVOBIOCIN] |  | > 30 µM |  |  |  | > 30 µM |  | > 30 µM |  | > 30 µM |
| CN1CC2c3ccccc3Oc3ccc(Cl)cc3C2C1 (stereo not drawn) [ASENAPINE] |  | > 30 µM |  |  |  | > 30 µM |  | > 30 µM |  | > 30 µM |
| O=C(O)[C@H]1/C(=C/CO)O[C@@H]2CC(=O)N21 [CLAVULANIC ACID] |  | > 30 µM |  |  |  | > 30 µM |  | > 30 µM |  | > 30 µM |
| O=NN(CCCl)C(=O)NC1CCCCC1 [LOMUSTINE] |  |  | > 30 µM | > 30 µM | 14.1 µM |  | > 30 µM |  | > 30 µM |  |
| C[C@H](CCC(=O)O)[C@H]1CC[C@H]2[C@@H]3[C@H](O)C[C@@H]4C[C@H](O)CC[C@]4(C)[C@H]3CC[C@]12C [CHENODIOL] |  |  |  |  |  | > 30 µM |  | > 30 µM |  | > 30 µM |
| NCCCNCCSP(=O)(O)O [AMIFOSTINE] | > 30 µM |  |  |  |  | > 30 µM |  | > 30 µM |  |  |
| COc1cc2c(cc1OC)C1CC(=O)C(CC(C)C)CN1CC2 (stereo not drawn) [TETRABENAZINE] |  | > 30 µM |  |  |  | > 30 µM |  | > 30 µM |  | > 30 µM |
| CC(C)(CO)c1cc2cc(NC(=O)C3(c4ccc5c(c4)OC(F)(F)O5)CC3)c(F)cc2n1C[C@@H](O)CO [TEZACAFTOR] |  | > 30 µM |  |  |  | > 30 µM |  | > 30 µM |  | > 30 µM |
| CN(C)CCOC(c1ccc(Cl)cc1)c1ccccn1 (stereo not drawn) [CARBINOXAMINE] | > 30 µM | > 30 µM |  |  |  |  |  | > 30 µM |  | > 30 µM |
| Nc1c2c(nc3ccccc13)CCCC2O (stereo not drawn) [VELNACRINE] |  | > 30 µM |  |  |  | > 30 µM |  | > 30 µM |  | > 30 µM |
| O=P1(N(CCCl)CCCl)NCCCO1 (stereo not drawn) [CYCLOPHOSPHAMIDE ANHYDROUS] |  |  | > 30 µM | > 30 µM | > 30 µM |  | > 30 µM |  | > 30 µM |  |
| CC(=O)NC[C@H]1CN(c2ccc(N3CCOCC3)c(F)c2)C(=O)O1 [LINEZOLID] | > 30 µM | > 30 µM |  |  |  | > 30 µM |  | > 30 µM |  |  |
| Cn1cnc2c(F)c(Nc3ccc(Br)cc3F)c(C(=O)NOCCO)cc21 [BINIMETINIB] |  | > 30 µM |  |  |  | > 30 µM |  | > 30 µM |  | > 30 µM |
| CCC[C@@]1(CCc2ccccc2)CC(O)=C([C@H](CC)c2cccc(NS(=O)(=O)c3ccc(C(F)(F)F)cn3)c2)C(=O)O1 |  | > 30 µM |  |  |  | > 30 µM |  | > 30 µM |  | > 30 µM |
| CCOCC(O)COc1ccc(NC(=O)CC[S+](C)C)cc1 (stereo not drawn) |  | > 30 µM |  |  |  | > 30 µM |  | > 30 µM |  | > 30 µM |
